Data: article PMC11282151, “Development of New CD38 Targeted Peptides for Cancer Imaging” (Molecular imaging and biology, 2024)

Legend:
hCD38 = experiment: Phage display biopanning, PHASTpep selectivity score; assay type: binding, human; settings: fold change of peptide frequency hCD38 versus average of hCD4, hCD8, GST-His; two rounds of biopanning, NGS
Text: Using phage display and purified human CD38 protein (hCD38), the first generation high- and low-selectivity CD38-targeted peptides were identified for the development of CD38-targeted imaging agents. Briefly, two rounds of phage display screening using the PHASTpep platform identified selective peptides for human CD38. CD38 (R&D, Catalog 2404-AC-010, Minneapolis, MN, U.S.A.) or negative control proteins, human CD4 (hCD4), human CD8 (hCD8), and GST-6His were adsorbed on Maxisorp plates (Nalgene, Nunc #442,404) according to NEB phage display protocols (NEB, Ipswich, MA). A 10 μL aliquot of PhD7 library (7 amino acid linear library) (2 × 10^11 phage) (NEB, #E8211S) diluted in blocking buffer (DPBS/1% bovine serum albumin (BSA)) was added to each well. After 1 h of incubation at room temperature, wells were washed five times with blocking buffer and the remaining bound phage eluted into 100 μL of glycine buffer (0.2 M glycine, 0.5 M NaCl, pH 2.2) for 9 min before immediately neutralizing with 17 μL of 1 M Tris–HCl (pH 9.2).
For analysis, sequencing of the selected phage clones was performed as described in Brinton et al.. Samples sent to the UVA Biomolecular Research Core Facility were deep sequenced on an Illumina MiSeq Sequencer. FASTQ files were analyzed using PHASTpep. PHASTpep analyzed files were aligned for amino acid sequence homology using the Smith—Waterman algorithm.
To identify peptides selective for CD38, we biopanned a random, 7 amino acid peptide phage library on recombinant hCD38 as well as hCD4, hCD8, and GST-His. After two rounds of biopanning on each protein, phage were harvested, amplified, and processed for next generation sequencing (NGS). FASTQ files were uploaded into PHASTpep, translated into peptides, and tables of frequency produced. All sequences were normalized to the naïve library (preselection) sequence frequencies and finally the fold change for each peptide frequency between hCD38 and the average of the same peptide frequency from the hCD4, hCD8, and GST-His screens was calculated. The Smith-Waterman homology algorithm was employed to identify clusters of similar peptides (Table S1). From the analysis, two clusters emerged with more than 5 peptides in the homology family and also had high selectivity (PHASTpep Score, Table S1).

[1] = biological target: T1, Recombinant human CD38 protein (Homo sapiens, UniProt P28907); experiment: Microscale thermophoresis (MST) binding affinity; design: purchased R&D 2404-AC-010; settings: for Response Amplitude: Table S2
Method: Microscale thermophoresis (MST) assays determined the binding affinity of synthesized peptides to purified CD38 protein and was performed using the Monolith NT.115 (Nanotemper Technologies, Munich, Germany). […] Recombinant human CD38 protein (R&D, Catalog 2404-AC-010, Minneapolis, MN) was labeled with NT647 (Protein labeling kit red-maleimide, Nanotemper Technologies, Germany) and subsequently diluted to 5 nM in MST-2 buffer (50 mM Tris–HCl, pH 7.4, 150 mM NaCl, 10 mM MgCl2, 2% DMSO, and 0.1% Tween-20). Fluorescence was assessed in MST-2 buffer. Samples were loaded into NT.115 standard capillaries, and analysis was performed at 37 °C, 10% LED power, and 40% MST power. The Kd values were calculated from fragment concentration-dependent changes in normalized fluorescence (Fraction Bound) of different CD38 peptides based on the law of mass action using the MO Affinity Analysis v2.3 software.
Microscale Thermophoresis (MST) measures molecular interactions based on temperature gradient-dependent mobility of fluorescent biomolecules.
Fig. 1 Binding studies evaluating CD38-peptides using purified CD38 protein. Microscale thermophoresis (MST) analysis of binding affinities between purified CD38 protein and various CD38 peptide sequences.

[2] = biological target: T2, CD38 on MM.1S-CBR-GFP-WT cells (Homo sapiens, UniProt P28907); experiment: In vitro blocking study of ^64Cu-NODAGA-PEG4-SL022-GGS cell binding; assay type: cell-based; settings: for blocking of ^64Cu-NODAGA-PEG4-SL022-GGS binding: 75 μM blocker, MM.1S-CBR-GFP-WT cells
T2 construct: endogenous in cells; host or cells: MM.1S-CBR-GFP-WT human myeloma cells
Method: To evaluate the specificity of the CD38 binding peptide, MM.1S-CBR-GFP-WT cells were suspended in binding buffer (Hank’s Balanced Salt Solution with 1 mM Ca^2+ and 1 mM Mg^2+ (HBSS + / +, Gibco, ThermoFisher, Waltham, MA) supplemented with 0.1% BSA) at 4 × 10^5 cells per 250 μL, representing the reaction volume.
In order to determine whether the conjugates were able to identify CD38 protein expressed in its native context, we performed cell binding assays with MM.1S-CBR-GFP-WT cells.

[3] = biological target: T1, Recombinant human CD38 protein; experiment: MST; Monolith NT.115; NT647-labeled recombinant human CD38 at 5 nM in MST-2 buffer (50 mM Tris-HCl pH 7.4, 150 mM NaCl, 10 mM MgCl2, 2% DMSO, 0.1% Tween-20); peptides titrated (0.0305 nM to 1000 nM or 0.0305 uM to 1000 uM); 37 °C, 10% LED power, 40% MST power

Molecule | Score (PHASTpep Score) (hCD38) | other results
QGTDWTM | 1.7 | –
AC-Thr-His-Tyr-Pro-Ile-Val-Ile-Gly-Gly-Ser Lys-NH2 [AC-SL022-GGS] | – | Response Amplitude [1]: 4.91
YDWTMHS | 299.7 | –
Thr-His-Tyr-Pro-Ile-Val-Ile [THYPIVI] | 730.1 | –
daratumumab: CD38-targeted FDA approved antibody [reference compound] | – | blocking of ^64Cu-NODAGA-PEG4-SL022-GGS binding ([2]; 300 nM tracer, 4 °C, 60 min): 73%; cell-bound ^64Cu-NODAGA-PEG4-SL022-GGS in presence of blocker ([2]; 300 nM tracer, 75 μM unlabeled blocker (250-fold molar excess), 4 °C, 60 min, mean ± SD): 3000 ± 600 fmol/mg
VSYHFPV | 194.4 | –
NODAGA-PEG4-Thr-His-Tyr-Pro-Ile-Val-Ile-Gly-Gly-Ser-Lys-NH2 [NODAGA-PEG4-SL022-GGS] | – | blocking of ^64Cu-NODAGA-PEG4-SL022-GGS binding ([2]; 300 nM tracer, 4 °C, 60 min): 58%; decrease in cell-bound ^64Cu-NODAGA-PEG4-SL022-GGS ([2]; 250-fold molar excess of unlabeled blocker): about 2 fold
VNYHFPV | 1.2 | binding to purified CD38 [1]: negligible binding
TPYPIVL | 429.7 | –
DLVHYPE | 1.5 | –
FSRDWTS | 671.1 | –
AC-Phe-Ser-Arg-Asp-Trp-Thr-Ser-Gly-Gly-Ser-Lys-NH2 [AC-SL028-GGS] | – | Response Amplitude [1]: 4.64
YKDWSEW | 266.4 | –
MPVARDW | 2.1 | –
QTSHDWL | 1.7 | –
H-KGGSFSRDWTS-NH2 [GGS-SL028 (H-Lys-Gly-Gly-Ser-Phe-Ser-Arg-Asp-Trp-Thr-Ser-NH2)] | – | Kd [3]: 82.6 nM
FSRDWTSGGSK (AC (acetyl) on the N-terminus; C-terminal amide) [AC-SL028-GGS (AC-Phe-Ser-Arg-Asp-Trp-Thr-Ser-Gly-Gly-Ser-Lys-NH2)] | – | Kd [3]: 243 nM
